In ChEMBL document CHEMBL1153236, “Non-aromatic A-ring replacement in the triaryl bis-sulfone CB2 receptor inhibitors” (Bioorg Med Chem Lett, 2010):

Species on record: Rattus norvegicus
Conditions: in vivo, 6 h

Compound	AUC [µM]
O=S(=O)(c1ccccc1F)c1cc(Cl)ccc1S(=O)(=O)N1CCC(CNS(=O)(=O)C(F)(F)F)CC1	1.9
O=S(=O)(c1ccccn1)c1ccc(OC(F)(F)F)cc1S(=O)(=O)N1CCC2(CC1)CC2NS(=O)(=O)C(F)(F)F (stereo not drawn)	7.3
O=S(=O)(c1ccccn1)c1ccc(Cl)cc1S(=O)(=O)N1CCC2(CC1)CC2NS(=O)(=O)C(F)(F)F (stereo not drawn)	6.1
